In patent US10221177B2 (HYDRA BIOSCIENCES, INC., priority 2014, dated 2019):

Molecular target: human TRPA1 (Homo sapiens (Human), UniProt O75762)
Experiment: In vitro inhibition of human TRPA1, whole cell patch configuration
Format: cell-based
Conditions: current activation 10 μM AITC, tested concentrations 320 pM to 3.2 μM, read-out: hTRPA1 IC50
How it was run: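 Whole-cell patch clamp, bath 150 mM NaCl, 10 mM HEPES, 1 mM EGTA, 3 mM MgCl2, pH 7.4 (sometimes 2 mM CaCl2, 1 mM MgCl2). Currents recorded continuously at −60 mV or by 400 ms ramps from −40 mV holding every 4 s; inward/outward currents taken at −80/80 mV, with controlled-temperature focal perfusion.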

Chain of human TRPA1 (O75762 whole entry): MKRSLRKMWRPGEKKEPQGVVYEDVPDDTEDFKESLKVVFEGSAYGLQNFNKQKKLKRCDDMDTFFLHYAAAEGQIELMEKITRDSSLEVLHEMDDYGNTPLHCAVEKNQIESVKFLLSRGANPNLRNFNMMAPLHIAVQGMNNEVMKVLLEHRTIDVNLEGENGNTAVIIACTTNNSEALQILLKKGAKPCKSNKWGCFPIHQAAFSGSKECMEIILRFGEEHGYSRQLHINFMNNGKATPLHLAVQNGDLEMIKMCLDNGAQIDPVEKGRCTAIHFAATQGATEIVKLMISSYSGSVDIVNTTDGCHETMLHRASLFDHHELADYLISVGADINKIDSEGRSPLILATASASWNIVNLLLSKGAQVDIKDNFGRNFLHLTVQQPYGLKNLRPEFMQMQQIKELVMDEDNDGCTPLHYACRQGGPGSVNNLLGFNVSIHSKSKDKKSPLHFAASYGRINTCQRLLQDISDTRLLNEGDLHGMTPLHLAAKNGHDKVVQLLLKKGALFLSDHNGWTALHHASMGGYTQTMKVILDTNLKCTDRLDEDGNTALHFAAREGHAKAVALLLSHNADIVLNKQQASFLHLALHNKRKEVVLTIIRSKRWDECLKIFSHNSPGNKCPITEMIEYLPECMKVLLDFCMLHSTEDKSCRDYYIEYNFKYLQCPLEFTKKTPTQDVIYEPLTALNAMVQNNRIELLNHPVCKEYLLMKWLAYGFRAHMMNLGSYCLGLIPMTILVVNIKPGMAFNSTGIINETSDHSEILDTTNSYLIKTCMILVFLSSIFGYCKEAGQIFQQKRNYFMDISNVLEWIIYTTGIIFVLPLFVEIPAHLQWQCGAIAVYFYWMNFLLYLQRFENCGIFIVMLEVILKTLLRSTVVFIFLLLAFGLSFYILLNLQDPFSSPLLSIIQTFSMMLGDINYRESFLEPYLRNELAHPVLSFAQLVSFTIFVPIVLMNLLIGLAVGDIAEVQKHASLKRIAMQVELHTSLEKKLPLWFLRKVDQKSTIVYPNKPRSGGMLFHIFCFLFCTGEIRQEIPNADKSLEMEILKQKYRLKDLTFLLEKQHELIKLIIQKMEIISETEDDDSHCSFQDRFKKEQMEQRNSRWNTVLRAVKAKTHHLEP

Compound	IC50
CCC(=O)Cn1c(=O)c2c(ncn2C(C)C(=O)Nc2ccnc(-c3cnc(N4CC5CC5C4)nc3)n2)n(C)c1=O (centres unmarked) [Compound 17, N-(2′-(3-azabicyclo[3.1.0]hexan-3-yl)-2,5′-bipyrimidin-4-yl)-2-(3-methyl-2,6-dioxo-1-(2-oxobutyl)-2,3-dihydro-1H-purin-7(6H)-yl)propanamide]	8 nM
C[C@@H](C(=O)Nc1cncc(-c2cnc(N3CC4C(C3)C4(F)F)nc2)n1)n1cnc2c1c(=O)n(CC#N)c(=O)n2C (stereo partly drawn) [Compound 60, (2S)-2-(1-(cyanomethyl)-3-methyl-2,6-dioxo-2,3-dihydro-1H-purin-7(6H)-yl)-N-(6-(2-(6,6-difluoro-3-azabicyclo[3.1.0]hexan-3-yl)pyrimidin-5-yl)pyrazin-2-yl)propanamide]	7 nM
CCC(=O)Cn1c(=O)c2c(ncn2[C@@H](C)C(=O)Nc2cccc(-c3cnc(N4CC5CC5C4)cn3)n2)n(C)c1=O (stereo partly drawn) [Compound 113, (2S)—N-(6-(5-(3-azabicyclo[3.1.0]hexan-3-yl)pyrazin-2-yl)pyridin-2-yl)-2-(3-methyl-2,6-dioxo-1-(2-oxobutyl)-2,3-dihydro-1H-purin-7(6H)-yl)propanamide]	2 nM
C[C@@H](C(=O)Nc1cccc(-c2ccc(C(F)(F)F)nc2)n1)n1cnc2c1c(=O)n(Cc1ccccn1)c(=O)n2C [Compound 1, (2S)-2-(3-methyl-2,6-dioxo-1-(pyridin-2-ylmethyl)-1,2,3,6-tetrahydropurin-7-yl)-N-(6-(6-(trifluoromethyl)pyridin-3-yl)pyridin-2-yl)propanamide]	28 nM
Cc1cc(Cn2c(=O)c3c(ncn3CC(=O)Nc3ccc(Br)c(C(F)(F)F)n3)n(C)c2=O)no1 [Compound 200, N-(5-bromo-6-(trifluoromethyl)pyridin-2-yl)-2-(3-methyl-1-((5-methyl-isoxazol-3-yl)methyl)-2,6-dioxo-2,3-dihydro-1H-purin-7(6H)-yl)acetamide]	34 nM
CC(=O)Cn1c(=O)c2c(nc(C)n2CC(=O)Nc2cccc(-c3cnc(C(F)(F)F)nc3)n2)n(C)c1=O [Compound 194, 2-(3,8-dimethyl-2,6-dioxo-1-(2-oxopropyl)-1,2,3,6-tetrahydropurin-7-yl)-N-(6-(2-(trifluo-romethyl)pyrimidin-5-yl)pyridin-2-yl)acetamide]	62 nM
Cc1cc(Cn2c(=O)c3c(ncn3[C@@H](C)C(=O)Nc3csc(-c4cnc(C)c(F)c4)n3)n(C)c2=O)no1 [Compound 100, (S)—N-(2-(5-fluoro-6-methylpyridin-3-yl)thiazol-4-yl)-2-(3-methyl-1-((5-methylisoxazol-3-yl)methyl)-2,6-dioxo-2,3-dihydro-1H-purin-7(6H)-yl)propanamide]	8 nM
CC#CCn1c(=O)c2c(ncn2[C@@H](C)C(=O)Nc2ccnc(-c3cnc(N4CC5CC5C4)nc3)n2)n(C)c1=O (stereo partly drawn) [Compound 173, (2S)—N-(2′-(3-azabicyclo[3.1.0]hexan-3-yl)-[2,5′-bipyrimidin]-4-yl)-2-(1-(but-2-yn-1-yl)-3-methyl-2,6-dioxo-2,3-dihydro-1H-purin-7(6H)-yl)propanamide]	6 nM
CC(=O)Cn1c(=O)c2c(ncn2[C@@H](C)C(=O)Nc2cccc(-c3cnc(C(F)(F)F)nc3)n2)n(C)c1=O [Compound 4, (S)-2-(3-methyl-2,6-dioxo-1-(2-oxopropyl)-2,3-dihydro-1H-purin-7(6H)-yl)-N-(6-(2-(trifluoromethyl)pyrimidin-5-yl)pyridin-2-yl)propanamide]	25 nM
CCC(=O)Cn1c(=O)c2c(ncn2[C@@H](C)C(=O)Nc2cccc(-c3ccc(N4CC5CC5C4)nc3)n2)n(C)c1=O (stereo partly drawn) [Compound 37, (2S)—N-(6′-(3-azabicyclo[3.1.0]hexan-3-yl)-2,3′-bipyridin-6-yl)-2-(3-methyl-2,6-dioxo-1-(2-oxobutyl)-2,3-dihydro-1H-purin-7(6H)-yl)propanamide]	3 nM
CC(=O)Cn1c(=O)c2c(ncn2CC(=O)Nc2cccc(-c3cnc(C)c(C(F)(F)F)c3)n2)n(C)c1=O [Compound 234, 2-(3-methyl-2,6-dioxo-1-(2-oxopropyl)2,3-dihydro-1H-purin-7(6H)-yl)-N-(6′-methyl-5′-(trifluoromethyl)-[2,3′-bipyridin]-6-yl)acetamide]	4 nM
Cc1noc(Cn2c(=O)c3c(ncn3[C@@H](C)C(=O)Nc3cccc(-c4cnc(N5CC6CC6C5)nc4)n3)n(C)c2=O)n1 (stereo partly drawn) [Compound 167, (2S)—N-(6-(2-(3-azabicyclo[3.1.0]hexan-3-yl)pyrimidin-5-yl)pyridin-2-yl)-2-(3-methyl-1-((3-methyl-1,2,4-oxadiazol-5-yl)methyl)-2,6-dioxo-2,3-dihydro-1H-purin-7(6H)-yl)propanamide]	4 nM
CCC(=O)Cn1c(=O)c2c(ncn2[C@@H](C)C(=O)Nc2cncc(-c3ccc(N4CC5C(C4)C5(F)F)nc3)n2)n(C)c1=O (stereo partly drawn) [Compound 84, (2S)—N-(6-(6-(6,6-difluoro-3-azabicyclo[3.1.0]hexan-3-yl)pyridin-3-yl)pyrazin-2-yl)-2-(3-methyl-2,6-dioxo-1-(2-oxobutyl)-2,3-dihydro-1H-purin-7(6H)-yl)propanamide]	4 nM
C[C@@H](C(=O)Nc1csc(-c2ccc(N3CC4CC4C3)nc2)n1)n1cnc2c1c(=O)n(CC#N)c(=O)n2C (stereo partly drawn) [Compound 66, (2S)—N-(2-(6-(3-azabicyclo[3.1.0]hexan-3-yl)pyridin-3-yl)thiazol-4-yl)-2-(1-(cyanomethyl)-3-methyl-2,6-dioxo-2,3-dihydro-1H-purin-7(6H)-yl)propanamide]	2 nM
CCC(=O)Cn1c(=O)c2c(ncn2[C@@H](C)C(=O)Nc2cccc(-c3cnc(OC)c(C(F)(F)F)c3)n2)n(C)c1=O [Compound 124, (S)—N-(6′-methoxy-5′-(trifluoromethyl)-[2,3′-bipyridin]-6-yl)-2-(3-methyl-2,6-dioxo-1-(2-oxobutyl)-2,3-dihydro-1H-purin-7(6H)-yl)propanamide]	1 nM
C[C@@H](C(=O)Nc1cncc(-c2cnc(C(F)(F)F)nc2)n1)n1cnc2c1c(=O)n(CC#N)c(=O)n2C [Compound 22, (S)-2-(1-(cyanomethyl)-3-methyl-2,6-dioxo-2,3-dihydro-1H-purin-7(6H)-yl)-N-(6-(2-(trifluoromethyl)pyrimidin-5-yl)pyrazin-2-yl)propanamide]	203 nM
C[C@@H](C(=O)Nc1csc(-c2cnc(N3CC4C(C3)C4(F)F)nc2)n1)n1cnc2c1c(=O)n(CC#N)c(=O)n2C (stereo partly drawn) [Compound 58, (2S)-2-(1-(cyanomethyl)-3-methyl-2,6-dioxo-2,3-dihydro-1H-purin-7(6H)-yl)-N-(2-(2-(6,6-difluoro-3-azabicyclo[3.1.0]hexan-3-yl)pyrimidin-5-yl)thiazol-4-yl)propanamide]	2 nM
(S)-2-(3-methyl-1-((3-methyl-1,2,4-oxadiazol-5-yl)methyl)-2,6-dioxo-2,3-dihydro-1H-purin-7(6H)-yl)-N-(5′-methyl-6′-(trifluoromethyl)-[2,3′-bipyridin]-6-yl)propanamide [Compound 134]	3 nM
C[C@@H](C(=O)Nc1csc(-c2cnc(N3CCC[C@H]3C(F)(F)F)nc2)n1)n1cnc2c1c(=O)n(CC#N)c(=O)n2C [Compound 28, (S)-2-(1-(cyanomethyl)-3-methyl-2,6-dioxo-2,3-dihydro-1H-purin-7(6H)-yl)-N-(2-(2-((S)-2-(trifluoromethyl)pyrrolidin-1-yl)pyrimidin-5-yl)thiazol-4-yl)propanamide]	1 nM
CC#CCn1c(=O)c2c(ncn2[C@@H](C)C(=O)Nc2csc(-c3cnc(N4CCC[C@H]4C(F)(F)F)nc3)n2)n(C)c1=O [Compound 268, (S)-2-(1-(but-2-ynyl)-3-methyl-2,6-dioxo-2,3-dihydro-1H-purin-7(6H)-yl)-N-(2-(2-((S)-2-(trifluoromethyl)pyrrolidin-1-yl)pyrimidin-5-yl)thiazol-4-yl)propanamide]	1 nM
CCC(=O)Cn1c(=O)c2c(ncn2[C@@H](C)C(=O)Nc2cncc(-c3cnc(N4CC5CC5C4)cn3)n2)n(C)c1=O (stereo partly drawn) [Compound 158, (2S)—N-(5′-(3-azabicyclo[3.1.0]hexan-3-yl)-[2,2′-bipyrazin]-6-yl)-2-(3-methyl-2,6-dioxo-1-(2-oxobutyl)-2,3-dihydro-1H-purin-7(6H)-yl)propanamide]	6 nM
CC(=O)Cn1c(=O)c2c(ncn2CC(=O)Nc2cccc(-c3ccc(F)c(F)c3)n2)n(C)c1=O [Compound 182, N-(6-(3,4-difluorophenyl)pyridin-2-yl)-2-(3-methyl-2,6-dioxo-1-(2-oxopropyl)-1,2,3,6-tetrahydropurin-7-yl)acetamide]	42 nM
Cc1cc(Cn2c(=O)c3c(ncn3CC(=O)Nc3cccc(N4CC5C(C4)C5(F)F)n3)n(C)c2=O)no1 (centres unmarked) [Compound 213, N-(6-(6,6-difluoro-3-azabicyclo[3.1.0]hexan-3-yl)pyridin-2-yl)-2-(3-methyl-1-((5-methylisoxazol-3-yl)methyl)-2,6-dioxo-2,3-dihydro-1H-purin-7(6H)-yl)acetamide]	141 nM
CCC(=O)Cn1c(=O)c2c(ncn2[C@@H](C)C(=O)Nc2csc(-c3cnc(N4CC5CC5C4)cn3)n2)n(C)c1=O (stereo partly drawn) [Compound 270, (2S)—N-(2-(5-(3-azabicyclo[3.1.0]hexan-3-yl)pyrazin-2-yl)thiazol-4-yl)-2-(3-methyl-2,6-dioxo-1-(2-oxobutyl)-2,3-dihydro-1H-purin-7(6H)-yl)propanamide]	3 nM
Cc1cc(Cn2c(=O)c3c(ncn3[C@@H](C)C(=O)Nc3cncc(-c4cncc(C(F)(F)F)c4)n3)n(C)c2=O)no1 [Compound 55, (S)-2-(3-methyl-1-((5-methylisoxazol-3-yl)methyl)-2,6-dioxo-2,3-dihydro-1H-purin-7(6H)-yl)-N-(6-(5-(trifluoromethyl)pyridin-3-yl)pyrazin-2-yl)propanamide]	5 nM
Cc1cc(Cn2c(=O)c3c(ncn3CC(=O)Nc3csc(-c4cnc(C)c(C(F)(F)F)c4)n3)n(C)c2=O)no1 [Compound 246, 2-(3-methyl-1-((5-methylisoxazol-3-yl)methyl)-2,6-dioxo-2,3-dihydro-1H-purin-7(6H)-yl)-N-(2-(6-methyl-5-(trifluoromethyl)pyridin-3-yl)thiazol-4-yl)acetamide]	1 nM
